Measured values taken from ChEMBL document CHEMBL3044803, “Impact of tricyclazole and azoxystrobin on growth, sporulation and secondary infection of the rice blast fungus, Magnaporthe oryzae” (Pest Manag Sci, 2013).
Values after ≈ are worked out from the molar mass of the structure shown. Active and inactive are the calls of the source. No cut-off for these calls is given here.

How the values were obtained:
Pyricularia grisea = assay: Fungicidal activity against Magnaporthe grisea; type: functional; conditions: read-out: ED50 (the source's name)
Pyricularia oryzae [1] = assay: Fungicidal activity against Magnaporthe oryzae from perennial ryegrass; type: functional; conditions: read-out: ED50 (the source's name)
Pyricularia oryzae [2] = assay: Fungicidal activity against Magnaporthe oryzae assessed as reduction of appressorium diameter of conidia at 0.01 to 1 mg/l at 26 degC measured after 7 days; type: functional, organism-based
Pyricularia oryzae [3] = assay: Fungicidal activity against Magnaporthe oryzae assessed as germination of conidia at 1 mg/l at 26 degC measured after 7 days; type: functional
Pyricularia oryzae [4] = assay: Fungicidal activity against Magnaporthe oryzae assessed as germination of conidia at 0.01 mg/l at 26 degC measured after 7 days; type: functional, organism-based
Pyricularia oryzae [5] = assay: microbe, parasite or virus in culture; type: functional; conditions: 168 h
Pyricularia oryzae [6] = assay: microbe, parasite or virus in culture; type: functional, organism-based; conditions: 168 h
Pyricularia oryzae [7] = assay: microbe, parasite or virus in culture; type: functional; conditions: for EC50: Pyricularia oryzae, 168 h, read-out: ED50 (the source's name)
Pyricularia oryzae [8] = assay: microbe, parasite or virus in culture; conditions: 168 h, read-out: INH

SMILES | EC50 (Pyricularia grisea) [mg/L] | EC50 (Pyricularia oryzae [1]) [mg/L] | Activity (Pyricularia oryzae [2]) | Activity (Pyricularia oryzae [3]) [%] | Activity (Pyricularia oryzae [4]) | inhibition at 1 µg/mL (Pyricularia oryzae [5]) [%] | EC50 (Pyricularia oryzae [6]) [mg/L] | ED90 (Pyricularia oryzae [7]) [mg/L] | EC50 (Pyricularia oryzae [7]) [mg/L] | inhibition at 5 µg/mL (Pyricularia oryzae [8]) [%]
CO/C=C(/C(=O)OC)c1ccccc1Oc1cc(Oc2ccccc2C#N)ncn1 [AZOXYSTROBIN] | 1.8 (≈ 4.46 µM) | 0.013 (≈ 0.0322 µM) | Active | 67.1 | inactive | 95 | 0.017 (≈ 0.0421 µM) | 69.58 (≈ 172 µM) | 0.044 (≈ 0.109 µM) | 
Cc1cccc2sc3nncn3c12 [TRICYCLAZOLE] |  |  |  |  |  |  | 0.072 (≈ 0.38 µM) | 215.64 (≈ 1140 µM) | 1 (≈ 5.31 µM) | 95
